# Experiments:
# [1] = tested on: tau transgenic mouse model for AD; parameters: method as in PMID 32091331; conditions: 5 and 15 mg/kg/day; cited from earlier work
# [2] = tested on: patients with mild to moderate Alzheimer's disease; assay: MRI lateral ventricular volume (LVV) change over 65 weeks by plasma exposure; assay type: in vivo, human; conditions: for LVV Difference ± SEM: split by 8 mg/day Cmax,ss median
# Text: (§1) Pharmacokinetic analyses were undertaken using plasma concentration data from patients who participated in either of two completed Phase III trials which have been described previously [[35, 36]]. In brief, the first (TRx-237-015) was a 15-month study which recruited 890 patients from 115 sites across 16 countries in EU, North America, Asia, and Russia. Patients had to be <90 years of age and have a diagnosis of mild to moderate probable AD according to National Institute of Aging (NIA) and Alzheimer’s Association (AA) criteria and a Mini-Mental State Examination (MMSE) score of 14–26 inclusive and with a Clinical Dementia Rating (CDR) total score of 1 or 2. The second study (TRx-237-005) was an 18-month trial which recruited 800 patients from 108 sites in Canada, United States, Australia, and Europe. Patients had to meet the same age and diagnosis criteria, except that they were required to have a MMSE score of 20–26 inclusive and a CDR total score of 0.5 or 1.0. Concomitant use of AChEIs or memantine (or both) was permitted in both studies provided this was at a stable dose for at least 18 weeks before randomization. Concomitant use of serotonergic antidepressant, antipsychotic (except clozapine or olanzapine), and sedative medications was also permitted at stable doses where clinically feasible. Patients were randomly assigned to receive LMTM at doses of 250, 150, or 8 mg/day in Study 015 and doses of 200 or 8 mg/day in Study TRx-237-005. Randomization in both studies was stratified according to geographical region, use of AD-labelled co-medications, and severity of AD. The co-primary outcomes in both studies were the Alzheimer’s Disease Assessment Scale–cognitive subscale, 11-item version (ADAS-cog11) and the Alzheimer’s Disease Co-operative Study–Activities of Daily Living, 23-item version (ADCS-ADL23) scale measured at baseline and every 3 months. MRI scans were undertaken at screening or baseline and at 3-month intervals. MRI acquisition protocol and parameters were standardized across sites and all data were centrally collected, quality-controlled, and analyzed blind by an imaging core lab (Bioclinica). Volumetric data were used to measure changes in whole brain volume (WBV, which provides a measure of the volume of grey and white matter), lateral ventricular volume (LVV), and other regional volumes including hippocampus, although only the global measures are reported in the present study. Baseline volumes were assessed using FreeSurfer 5.3, and volume change was assessed using Boundary Shift Integral and Tensor Based Morphometry for regional structures. Full details and study protocols for these two trials are available [[35, 36]].
# (§2) Having shown a concentration-dependent response for cognitive decline, a mixed-effects model for repeated measures analysis was used to characterize further the relationship between each efficacy endpoint and parent MT plasma exposure (steady state Cmax,ss) according to the following formula: pharmacological activity∼plasma-level×visit+co-medication-status×visit+co-medication-status×plasma-level+geographical-region+CDR-at-baseline+baseline-score×visit
# The following terms were categorical variables in the models: plasma exposure (Cmax,ss) (7 levels), visit (5 levels), co-medication status with AD drugs (2 levels), geographical region (2 levels), and CDR at baseline (3 levels). For the longitudinal analyses, plasma level was described by two levels (above or below threshold).
# Route of clearance = conditions: in vivo
# [3] = tested on: patients with mild to moderate Alzheimer's disease; assay: ADAS-cog11 change over 65 weeks by plasma exposure; assay type: in vivo, human; conditions: for ADAS-cog Difference ± SEM: split by 8 mg/day Cmax,ss median
# Text: as §1
# The exposure-response analyses were conducted independently by ICPD and verified by TauRx. As a first step in the analysis, the concentration-response data were reviewed for ADAS-cog11 decline at week 65 in all patients receiving LMTM at a dose of 8 mg/day using a sigmoid Emax (maximum response) model not requiring assumptions regarding exposure subgroups. The model was fitted using covariates geographical region, CDR at baseline, co-medication status, and baseline ADAS-cog11. A 90% bootstrap confidence interval was also calculated.
# as §2
# The following terms were categorical variables in the models: plasma exposure (Cmax,ss) (7 levels), visit (5 levels), co-medication status with AD drugs (2 levels), geographical region (2 levels), and CDR at baseline (3 levels). […]
# [4] = tested on: patients with mild to moderate Alzheimer's disease; assay: Hill equation concentration-response analysis (ADAS-cog11 and WBV); assay type: in vivo, human
# Text: In addition to the exposure-response analyses described above, a further standard pharmacological concentration-response analysis was undertaken using the Hill equation [40] applied to the ADAS-cog11 and whole brain volume data to characterize the overall response profile quantitatively and to investigate the lower concentration limit of the treatment effect. The Hill equation was applied under the assumption of non-cooperativity and was applied with an additional linear term to permit trends occurring at high concentrations to be included in the model. […] This was fitted separately for LMTM added to approved symptomatic treatments and for those who took the drug as monotherapy, with parameters estimated using a non-linear least squares estimator.
# In order to relate Cmax,ss values to theoretical doses, a linear model was fitted to the mean plasma concentrations at the 8, 150, 200 and 250 mg/day doses: estimated dose=22.22×(Cmax, ss-0.016) where dose is in mg/day and Cmax,ss is ng/ml units.
# [5] = LMTM 8 mg/day as add-on therapy, Cmax,ss above vs below 0.373 ng/ml
# [6] = LMTM 8 mg/day as monotherapy, Cmax,ss above vs below 0.373 ng/ml
# [7] = LMTM 8 mg/day, low Cmax add-on versus high Cmax monotherapy
# [8] = all patients, high vs low exposure split by Cmax,ss 0.373 ng/ml, 65 weeks
# [9] = patients receiving LMTM 8 mg/day, split by Cmax,ss 0.373 ng/ml, 65 weeks
compound,measurement,setting,value
"CN(C)c1ccc2c(c1)Sc1cc(N(C)C)ccc1N2 [LMTM, leuco-methylthioninium bis(hydromethanesulphonate)]",Complex IV activity in brain mitochondria,[1],increase Complex IV activity in brain mitochondria
same,acetylcholine levels in hippocampus,[1],increase acetylcholine levels in hippocampus
same,choline acetyltransferase activity in basal forebrain,[1],restore choline acetyltransferase activity in basal forebrain
same,glutamate release from brain synaptosomes,[1],reverse impairment in glutamate release from brain synaptosomes
same,LVV Difference±SEM in change from baseline,[2]; [5],–1.81±0.39 cm^3
same,LVV Difference±SEM in change from baseline,[2]; [6],–1.60±0.46 cm^3
same,LVV Difference ± SEM,[2]; LMTM 8 mg/day as monotherapy,-0.82 ± 0.44 cm3
same,LVV Difference±SEM in change from baseline,[2]; [7],–3.15±0.62 cm^3
same,LVV Difference±SEM in change from baseline,[2]; [8],–1.52±0.34 cm^3
same,LVV Difference ± SEM,[2]; all patients,-0.80 ± 0.30 cm3
same,LVV Difference±SEM in change from baseline,[2]; [9],–1.76±0.38 cm^3
same,share of clearance via the kidneys,Route of clearance,70%
same,ADAS-cog11 Difference±SEM in change from baseline,[3]; [5],–3.52±0.78
same,ADAS-cog11 Difference±SEM in change from baseline,[3]; [6],–2.60±1.16
same,ADAS-cog Difference ± SEM,[3]; LMTM 8 mg/day as monotherapy,-2.75 ± 1.09
same,ADAS-cog11 Difference±SEM in change from baseline,[3]; [7],–7.53±1.22
same,ADAS-cog11 Difference±SEM in change from baseline,[3]; [8],–2.66±0.69
same,ADAS-cog Difference ± SEM,[3]; all patients,-1.91 ± 0.59
same,ADAS-cog11 Difference±SEM in change from baseline,[3]; [9],–3.41±0.76
same,maximum predicted pharmacological activity as add-on therapy relative to monotherapy,[4]; Hill equation analysis,about half
same,plasma concentrations at which treatment effects reach a plateau,[4]; Hill equation estimates,0.9 to 4.1 ng/mL
same,theoretical doses corresponding to the plateau,[4]; Hill equation estimates,16 to 80 mg/day
same,"lower limit of drug activity (plasma Cmax,ss)","[4]; monotherapy and add-on therapy, cognitive decline and whole brain atrophy",approximately 0.29 ng/ml
